In patent US20050266106A1, “Use of fermented wheat germ extract as anti-inflammatory agent” (priority 2002, published 2005):

Tested on: adjuvant arthritis (AA)
Assay: histological studies of joints of AA rats
Type: in vivo
Experimental: The affected joints of the right hind foot pad together with the epiphyses of the bones and the surrounding fibrous and muscular tissues were fixed in buffered neutral 4% formalin. Decalcification was performed by using EDTA and the samples were embedded into paraffin. 8 μm thin longitudinal sections were cut and the sections were stained with hemotoxiline (H) and eosine (E). In the selected positive control and in the treated cases an immunoperoxidase reaction was performed to show CD4 and CD8 positive T-lymphocytes. The used antibody was the product of Santa Cruz (Santa Cruz, Calif., USA), applied in 1:100 dilution.
There was no significant difference between the groups receiving 24-hour and 14-day pretreatment, respectively.

Row | Structure (SMILES) | Histological grade (average 1 to 3) of inflammatory infiltrates (2 × 0.05 mg/kg/day, 14-day pretreatment) | Histological grade (average 1 to 3) of inflammatory infiltrates (2 × 0.05 mg/kg/day, 24-hour pretreatment) | Histological grade (average 1 to 3) of inflammatory infiltrates (2 × 0.5 mg/kg/day, 14-day pretreatment) | Histological grade (average 1 to 3) of inflammatory infiltrates (2 × 0.5 mg/kg/day, 24-hour pretreatment)
1 | C[C@@H]1C[C@H]2[C@@H]3CCC4=CC(=O)C=C[C@]4(C)[C@@]3(F)[C@@H](O)C[C@]2(C)[C@@]1(O)C(=O)CO [Dexamethasone] | 1.2 | 1.4 |  | 
2 | COc1ccc2c(c1)c(CC(=O)O)c(C)n2C(=O)c1ccc(Cl)cc1 [Indomethacin] |  |  | 1.2 | 1.0
